According to ChEMBL document CHEMBL1201862, “PubChem BioAssay data set” (2004):
Activity calls are given as the source filed them. Rule as the data show it, for most assays here: actives have a measured EC50 and inactives only a lower limit.

Columns and labels:
cells [1] = format: functional, cell-based
cells [2] = format: functional, cell-based; remark: listed apart in the source
[3] = Luminescence Cell-Based Dose Confirmation HTS to Identify Activators of 5'UTR Stem-Loop Driven Alpha-Synuclein mRNA Translation in H4 Neuroglioblastoma Cells. [Related pubchem assays: 1829 (Project Summary), 1814 (Primary HTS)]; format: functional
[4] = Luminescence Cell-Based Dose Response HTS to Identify Activators of Luciferase Translation or Activity in H4 […] Cells. [Related pubchem assays: 1829 (Project Summary), 1814 (Primary HTS)]; format: functional
H4 = assay: Luminescence Cell-Based Dose Response HTS to Identify Activators of 5'UTR Stem-Loop Driven Prion Protein mRNA Translation in H4 Neuroglioblastoma Cells. [Related pubchem assays: 1829 (Project Summary), 1814 (Primary HTS)]; format: functional; conditions: Homo sapiens
[5] = loss of viability in HepG2 cells – cell-based, CellTiter-Glo, cherry-picked, cytotoxicity control for Shn3 inhibitor project, dose response (AID 624134); format: functional
[6] = reduction of Shn3 3'UTR-driven luciferase in osteoblasts – cell-based, Clone20 osteoblasts, firefly luciferase, cherry-picked, dose response (AID 624132); format: functional;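 also: firefly luciferase luminescence from reporter carrying the Shn3 3'UTR in osteoblasts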
[7] = non-specific 3'UTR reporter inhibition in Clone20-Shn3RL – cell-based, Renilla luciferase, cherry-picked, counter-screen for Shn3 inhibitor project, dose response (AID 624133); format: functional
[8] = viability of uninfected HEp-2 cells – cell-based, HTS, cytotoxicity control for RSV inhibitor project, dose response (AID 2410); format: functional; conditions: human respiratory syncytial virus
INS1 = assay: INS-1E survival protection against cytokine death – cell-based, luminescence, retest, dose response (AID 449756); format: functional; conditions: Rattus norvegicus;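 also: cell death triggered by IL-1 beta plus TNF-alpha plus IFN-gamma mixture; protective hits raise ATP signal compared with cytokine alone wells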
[9] = NIH3T3 cell viability loss – ATP luminescence, mouse fibroblasts, counter-screen, dose response (AID 2010); format: functional, cell-based;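 also: cells exposed to compound for about 90 hours before reading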
[10] = Luminescence Cell-Based Dose Response HTS to Identify Inhibitors of 5'UTR Stem-Loop Driven Prion Protein mRNA Translation in H4 Neuroglioblastoma Cells. [Related pubchem assays: 1827 (Project Summary), 1813 (Primary HTS)]; format: functional
[11] = Trypanosoma cruzi growth suppression in host cells – NIH3T3 host cells, beta-gal luminescence, confirmation (AID 2044); format: functional, cell-based;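 also: intracellular parasites grown in NIH/3T3 mouse fibroblasts as host cells; luminescent beta-galactosidase reporter signal from transgenic T. cruzi replicating inside host cells; inhibitors lower the luminescence signal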
[12] = alpha-synuclein stem-loop luciferase translation blockers – H4 neuroglioma cells, luminescence, confirmation (AID 1988); format: functional, cell-based
[13] = luciferase reporter signal suppression in cells – H4 neuroglioma cells, luminescence, dose response (AID 1990); format: functional, cell-based
Paired box protein Pax-8 = Paired box protein Pax-8 (Homo sapiens, UniProt Q06710); assay: PAX8 transcriptional activity inhibition in RMG-I – RMG-I cells, luciferase, cherry-pick, dose response (AID 687027); format: functional, cell-based;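 also: luciferase reporter driven by Pax8 target thyroperoxidase promoter measured by SteadyGlo luminescence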
Chain of Paired box protein Pax-8 (Q06710 whole entry): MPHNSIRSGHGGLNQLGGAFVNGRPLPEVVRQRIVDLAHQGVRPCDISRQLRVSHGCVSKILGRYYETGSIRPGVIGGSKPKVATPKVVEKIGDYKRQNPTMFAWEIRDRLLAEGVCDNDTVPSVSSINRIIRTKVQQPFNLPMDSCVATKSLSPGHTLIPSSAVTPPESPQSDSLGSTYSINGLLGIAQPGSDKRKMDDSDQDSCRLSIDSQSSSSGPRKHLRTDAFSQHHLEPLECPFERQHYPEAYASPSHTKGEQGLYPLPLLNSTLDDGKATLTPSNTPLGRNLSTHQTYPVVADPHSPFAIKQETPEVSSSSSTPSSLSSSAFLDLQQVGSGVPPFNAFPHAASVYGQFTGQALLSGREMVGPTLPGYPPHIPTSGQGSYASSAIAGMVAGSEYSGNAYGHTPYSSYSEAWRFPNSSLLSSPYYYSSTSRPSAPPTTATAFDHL

Question: With `O=C(COC(=O)Cc1ccc(S(=O)(=O)N2CCCCC2)s1)Nc1ccc2c(c1)OCO2` as the molecule, how does the EC50 (cells [1]) read?
Answer: > 350 µM (not active)

Question: And the EC50 (cells [2])?
Answer: > 350 µM (not active)

Question: What does the source list for `COc1cc(C)ccc1OCCOc1ccccc1Cl`?
Answer: EC50 [3]: 32.5 µM (active); EC50 [4]: 87.3 µM (active); EC50 (H4): 18.6 µM (active)

Question: With `O=C(NCCc1csc(-c2cccc(F)c2)n1)c1ccco1` as the molecule, how does the EC50 (cells [1]) read?
Answer: > 350 µM (not active)

Question: And the EC50 (cells [2])?
Answer: > 350 µM (not active)

Question: Which results are given for `CCOc1ccc(-c2nnc(N3CCCCC3)c3ccccc23)cc1`?
Answer: AC50 [5]: > 70 µM (inactive); AC50 [6]: 14.9 µM (active); AC50 [7]: 8.24 µM (active)

Question: With `CCOC(=O)Cc1csc(NC(=O)/C=C/c2ccc(Cl)cc2)n1` as the molecule, how does the CC50 [8] read?
Answer: 4.57 µM (active)

Question: Which EC50 [3] does the source give for `CC1CCc2c(sc3nc(CSc4n[nH]c(N)n4)nc(O)c23)C1` (stereo unspecified) here?
Answer: 15.5 µM (active)

Question: What about the EC50 [4] of the same molecule?
Answer: 27.2 µM (active)

Question: And the EC50 (H4)?
Answer: 13.2 µM (active)

Question: For `CC(NC(=O)c1cc(COc2ccc3ncccc3c2)on1)c1ccc(F)cc1` (stereo unspecified), which AC50 [5] is on record?
Answer: 2.86 µM (active)

Question: What about the AC50 [6] of the same molecule?
Answer: 2.28 µM (active)

Question: And the AC50 [7]?
Answer: 2.2 µM (active)

Question: What about the AC50 (INS1) of the same molecule?
Answer: 4.52 µM (active)

Question: With `O=C(CSc1nc(-c2ccc(F)cc2)cs1)N1CCOCC1` as the molecule, how does the EC50 [3] read?
Answer: 10.1 µM (active)

Question: What about the EC50 [4] of the same molecule?
Answer: 7.79 µM (active)

Question: What about the EC50 (H4) of the same molecule?
Answer: 14.3 µM (active)

Question: With `Cn1nc(C(F)(F)F)cc1C(=O)NC1CCCCCC1` as the molecule, how does the EC50 (cells [1]) read?
Answer: > 350 µM (not active)

Question: What about the EC50 (cells [2]) of the same molecule?
Answer: > 350 µM (not active)

Question: For `CN(C#N)c1nccc(-c2cccs2)n1`, which CC50 [8] is on record?
Answer: 23.8 µM (active)

Question: Which EC50 [3] does the source give for `CCC(C)[C@H](NC(=O)N1CC(=O)Nc2ccccc21)C(=O)Nc1ccccc1C` (stereo partly specified) here?
Answer: > 120 µM (not active)

Question: What about the EC50 [4] of the same molecule?
Answer: 27.5 µM (active)

Question: And the EC50 (H4)?
Answer: > 120 µM (not active)

Question: Which results are given for `CCn1nc(C)c(NC(=O)/C=C/c2ccc(OC)c(COc3ccc(Br)cc3)c2)c1C`?
Answer: EC50 [9]: > 60 µM (not active); EC50 [10]: 23.7 µM (active); EC50 [11]: 2.52 µM (active); CC50 [8]: 31.6 µM (active); EC50 [12]: 13.4 µM (active)

Question: With `CCOC(=O)C1CCN(C(=O)C2CCCN(c3ncnc4c3nc3n4CCCCC3)C2)CC1` (stereo unspecified) as the molecule, how does the EC50 (cells [1]) read?
Answer: > 350 µM (not active)

Question: What about the EC50 (cells [2]) of the same molecule?
Answer: > 350 µM (not active)

Question: For `Cc1cc(N2CCCC2)ccc1/C=C1\NC(=S)N(C)C1=O`, which EC50 [3] is on record?
Answer: 22.1 µM (active)

Question: What about the EC50 [4] of the same molecule?
Answer: 20 µM (active)

Question: What about the EC50 (H4) of the same molecule?
Answer: 35.5 µM (active)

Question: For `c1ccc(C2=Nc3ccccc3SC2c2nc3ccccc3[nH]2)cc1` (stereo unspecified), which EC50 [3] is on record?
Answer: 0.47 µM (active)

Question: And the EC50 [4]?
Answer: 24.1 µM (active)

Question: What about the EC50 (H4) of the same molecule?
Answer: > 120 µM (not active)

Question: Which results are given for `CC(Sc1nnc(COc2ccc([N+](=O)[O-])cc2)n1C)C(=O)O` (stereo unspecified)?
Answer: EC50 (cells [1]): > 350 µM (not active); EC50 (cells [2]): > 350 µM (not active)

Question: With `O=C1N/C(=C/c2cccs2)C(=O)N1Cc1ccc(Br)cc1` as the molecule, how does the EC50 (cells [1]) read?
Answer: > 350 µM (not active)

Question: And the EC50 (cells [2])?
Answer: > 350 µM (not active)

Question: Which AC50 [5] does the source give for `CCc1ccc(CNCc2ccc(OCC(O)CN(C)Cc3ccccc3)cc2)nc1` (stereo unspecified) here?
Answer: 25 µM (active)

Question: And the AC50 [6]?
Answer: 4.43 µM (active)

Question: What about the AC50 [7] of the same molecule?
Answer: 14.2 µM (active)

Question: Which AC50 [5] does the source give for `Cc1cc(Sc2ccc([N+](=O)[O-])cn2)ccc1Br` here?
Answer: > 70 µM (inactive)

Question: And the AC50 [7]?
Answer: 31.4 µM (active)

Question: What does the source list for `CNc1nc(N/N=C/c2cc3c(cc2[N+](=O)[O-])OCO3)nc(Nc2ccccc2)n1`?
Answer: EC50 [9]: > 60 µM (inconclusive); EC50 [10]: 9.97 µM (active); AC50 (INS1): 13.2 µM (active); EC50 [13]: 9.21 µM (active); EC50 [11]: 2.42 µM (active); EC50 [12]: 12.7 µM (active)

Question: For `Cc1ccc(S(=O)(=O)N(C)C[C@H]2Oc3ccc(NC(=O)Nc4ccc(C(F)(F)F)cc4)cc3CC(=O)N([C@H](C)CO)C[C@@H]2C)cc1`, which AC50 (Paired box protein Pax-8) is on record?
Answer: 7.34 µM (active)

Question: Which AC50 (Paired box protein Pax-8) does the source give for `C[C@@H]1CCCCO[C@@H](CN(C)Cc2ccc(C(F)(F)F)cc2)[C@H](C)CN([C@@H](C)CO)C(=O)c2cc(NS(=O)(=O)c3ccc(Cl)cc3)ccc2O1` here?
Answer: 9.89 µM (active)

Question: Which EC50 [10] does the source give for `C(=N\N1CCN(C(c2ccccc2)c2ccccc2)CC1)/c1ccc2c(c1)OCO2` here?
Answer: 0.672 µM (active)

Question: What about the EC50 [13] of the same molecule?
Answer: > 120 µM (not active)

Question: What about the EC50 [12] of the same molecule?
Answer: > 120 µM (not active)

Question: For `Fc1cnc(N/N=C/c2ccc(-c3ccc(Br)cc3)o2)nc1N1CCOCC1`, which CC50 [8] is on record?
Answer: 6.89 µM (active)
